We go through 27 compounds from patent publication US5770625A, “Butyryl-tyrosinyl spermine, analogs thereof and methods of preparing and using same” (priority 1994, dated 1998).

Where two headings read alike, the source gives them in different places.

Experiment [1] concerns postsynaptic QUIS-R of locust leg muscle. The experiment in a line: Antagonism of neurally-evoked twitch contraction of locust retractor unguis nerve-muscle preparation. Details: species or system Schistocerca gregaria. An excerpt: Electrophysiological studies. The metathoracic retractor unguis nerve-muscle preparation of the locust Schistocerca gregaria was dissected and mounted in a small Perspex bath as described previously (21). The pharmacological activity on the locust nerve muscle preparation, using reduction in neurally evoked twitch amplitude as the measure of activity. Ten fractions were pharmacologically active. […] Further purification of this fraction by reverse-phase HPLC gave four peaks (FIG. 2B), the most pharmacologically was in the major peak (hatched FIG. 2B) . This fraction gave 1.1 mg of toxin as amorphous powder.
The retractor unguis muscle and its nerve were dissected from the metathoracic legs of adult, female locusts (Schistocerca gregaria) and mounted in a Perspex perfusion chamber as described by Usherwood and Machili (21) and Bateman, et al. (14). The muscle was stretched to maximal body length and attached at its tendon or apodeme to a Grass FT 10-strain gauge by a short length of nylon thread. The volume of the muscle bath was about 0.5 ml and its contents could be exchanged within 1 sec. The preparation was perfused continuously at the rate of 5-10 ml min^-1 (except during the application of toxin (see below)) with standard locust saline of the following composition (mM): NaCl, 180; KCl, 10; CaCl2, 2; Hepes, 10; buffered to pH 6.8. The retractor unguis muscle is innervated by two excitatory motoneurons (30) and an inhibitory motoneuron (19,32), but the influence of the latter on the responsiveness of the muscle is slight. Maximal stimulation of the retractor unguis nerve at 0.2 Hz produced a series of twitch contractions of constant amplitude, which were maintained for many hours in good preparations. The test compounds were kept at -20° C. They were dissolved in locust saline on the day of the assay and tested at room temperature. The compounds were applied by pipette to a nerve-muscle preparation such that the contents of the perfusion bath were completely replaced by the test solution. Exposure to the test compound lasted 20 min. Because of the limited availability of some of the compounds, the preparation was not perfused during this period. However, the amplitude of the retractor unguis muscle twitch rarely changed by more than 5-10% over a 20 minute period. During application of the test solutions the stimulation frequency was raised to 0.6 Hz for brief periods to test for stimulus frequency-dependent effects on twitch amplitude (31,37). Dose-inhibition data were obtained by testing the effects, on single retractor unguis muscle preparations, of a range of concentrations of the test compounds. Each concentration of the respective samples was tested at least thee times, and each compound was assayed usually over a 100-fold concentration range (a total of 7-10 concentrations). The standard deviations for twitch inhibition for any given concentration of a toxin rarely exceed 10%. Those compounds for which the deviation was greater than this are identified in Tables 1-7. There was some variation in the potency of PhTX-343 and the test compounds between nerve-muscle preparations. In order to compensate for this, the following procedure was adopted: PhTX-343 was assayed at a variety of concentrations on eight retractor unguis nerve-muscle preparations to give a cumulative dose-inhibition relationship for this toxin. The concentration of PhTX-343 which reduced the twitch contraction by 50% (IC50) was then determined by fitting a curve to the data using the following equation: [formula] where: [T]= toxin concentration, I= % inhibition, Imax =maximum inhibition= 100% and n' represents the Hill slope coefficient. […] The ratio of the actual reduction in twitch amplitude obtained with this single concentration of PhTX-343 and the 50% reduction that was anticipated from the cumulative dose-inhibition relationship for this toxin, was then used as a factor to normalize the data for the test compound. […]

The subject of another experiment is locust muscle QUIS-R. The experiment in a line: Voltage dependence of antagonism of locust muscle QUIS-R. The following applies: block relieved above about -100 mV. An excerpt: PhTX-343 binds to the QUIS-R channel, possible at a site located within its selectivity filter (35,36). Other studies in our laboratories have shown that antagonism of locust muscle QUIS-R by PhTX-343 and compound 13, the diiodo analogue, is voltage-dependent, as one might expect for open channel blockers carrying a net positive charge. […] Cation-selective membrane channels are generally envisaged as aqueous pores lined by fixed negative charges. In the case of the amphibian nicotinic acetylcholine receptor the latter are thought to be concentrated in three clusters in the vicinity of the selectively filter (41). […] The relative disposition and number of protonated groups on the toxin seems to be important in determining potency, which appears to be maximized for a given number of protonated groups when these have a constant spacing of three methylenes on their equivalents.

[2] abbreviates: Table 2, region B modifications, * SD < 20%, read-out: IC50.
[3] abbreviates: Table 2, relative to PhTX-343 = 1.0.
The mark [4] stands for this setting: Table 3, region C modifications, read-out: IC50.
[5] abbreviates: Table 3, relative to PhTX-343 = 1.0.
[6] abbreviates: Table 5, modifications to more than one region, read-out: IC50.
Where [7] appears, read: Table 4, terminal amino group modifications, * SD < 20%, read-out: IC50.
[8] abbreviates: Table 4, relative to PhTX-343 = 1.0.

For `CCCCCCCCCC(=O)N[C@@H](Cc1ccc(O)cc1)C(=O)NCCCNCCCCNCCCNC(=O)[C@H](Cc1ccc(O)cc1)NC(=O)CCCCCCCCC`, the “IC50 (M)” value in experiment [1] (Table 6, bis analogues of PhTX-343) is “insol”.
On to `CCCC(=O)N[C@@H](Cc1cc(I)c(O)c(I)c1)C(=O)NCCCNCCCCNCCCN` [drawing 35], for which the IC50 in experiment [1] (setting [2]) was 5.3 µM. For the same compound, in experiment [1] (setting [3]), the “Relative Potency” value was found to be 4.4.
On to `CCCC(=O)N[C@@H](Cc1cc(I)c(O)c(I)c1)C(=O)NCCCNCCCCNCCCNC(=O)[C@@H](N)CCCCN` [Compound 38, diiodo-PhTX-lysine], for which the “potency compared with PhTX-343 or other analogues (in words)” value in experiment [1] is “more potent than PhTX-343”.
Take `[N-]=[N+]=C(C(=O)NCCCC(=O)N[C@@H](Cc1ccc(O)cc1)C(=O)NCCCNCCCCNCCCN)C(F)(F)F` [drawing 51]: the IC50 in experiment [1] (setting [4]) came to 290 µM. Moreover, the “Relative Potency” value in experiment [1] (setting [5]) was found to be 0.1.
In the case of `CCCC(=O)N[C@@H](Cc1ccccc1)C(=O)NCCCNCCCCNCCCN` [Compound 10], in experiment [1], the “potency compared with PhTX-343 or other analogues (in words)” value is given as “increased potency about three-fold”. Further, the IC50 in experiment [1] (setting [2]) came to 6.7 µM. The “Relative Potency” value in experiment [1] (setting [3]) was 3.4.
Consider `C/C=C/C=C/C(=O)N[C@@H](Cc1ccc(O)cc1)C(=O)NCCCNCCCCNCCCN` [Compound 21], for which the “potency compared with PhTX-343 or other analogues (in words)” value in experiment [1] is given as “very potent”.
As to `[N-]=[N+]=Nc1ccc(C(=O)N[C@@H](Cc2cc(I)c(O)c(I)c2)C(=O)NCCCNCCCCNCCCNC(=O)[C@@H](N)CCCCN)cc1` [drawing 68], in experiment [1] (setting [6]), the IC50 is 1.8 µM. For the same compound, the “Relative Potency” value in experiment [1] (Table 5, relative to PhTX-343) is on record as 13.
`CCCC(=O)NCC(=O)NCCCNCCCCNCCCN` [Compound 16, N-butyryl-L-glycine-spermine-amide]: the “potency compared with PhTX-343 or other analogues (in words)” value in experiment [1] is reported as “greatly reduced activity”.
`CCCC(=O)N[C@@H](Cc1ccc(O)cc1)C(=O)NCCCNCCCCNCCCNC(=O)[C@@H](N)CCCNC(=N)N` [drawing 62]: the IC50 in experiment [1] (setting [7]) was 6.3 µM. In addition, in experiment [1] (setting [8]), the “Relative Potency” value was 3.7.
In the case of `CCCC(=O)N[C@@H](Cc1ccc(O)cc1)C(=O)NCCCNCCCCNCCCNC(=O)CCCN` [Compound 34], the “potency compared with PhTX-343 or other analogues (in words)” value in experiment [1] is on record as “potency was reduced”.
As to `CCCC(=O)N[C@@H](Cc1ccc(O)cc1)C(=O)NCCCCNCCCN` [drawing 24], in experiment [1] (Table 1, region A modifications, 20 min exposure, normalized with PhTX-343, ** SD < 30%, read-out: IC50), the IC50 was determined as 39 µM. Besides, in experiment [1] (Table 1, relative to PhTX-343 = 1.0), the “Relative Potency” value is 0.6.
`CCCC(=O)N[C@@H](Cc1ccc(O)cc1)C(=O)NCCCNCCCCNCCCN` [drawing 57]: the IC50 in experiment [1] (setting [7]) was 23 µM. Moreover, the “Relative Potency” value in experiment [1] (setting [8]) is reported as 1.0.
For `CCCC(=O)N[C@@H](Cc1ccc(O)cc1)C(=O)NCCCCNCC(C)CNCCCN` (some centres unmarked) [Compound 7], in experiment [1], the “potency compared with PhTX-343 or other analogues (in words)” value is given as “did not greatly alter potency”.
In the case of `CCCCCCCCCC(=O)N[C@@H](Cc1ccc(O)cc1)C(=O)NCCCNCCCCNCCCN` [Compound 20, C10-PhTX-343], the “potency compared with PhTX-343 or other analogues (in words)” value in experiment [1] is given as “successive increases in potency”. Further, the IC50 in experiment [1] (setting [4]) stood at 1.4 µM. Besides, the “Relative Potency” value in experiment [1] (setting [5]) is 16.0.
Regarding `NCCCNCCCCNCCCNC(=O)[C@H](Cc1ccc(O)cc1)NC(=O)/C=C/c1ccccc1` [drawing 49], the IC50 in experiment [1] (setting [4]) stood at 2 µM. Besides, the “Relative Potency” value in experiment [1] (setting [5]) is given as 12.0.
As to `[N-]=[N+]=Nc1ccc(C(=O)N[C@@H](Cc2ccc(O)cc2)C(=O)NCCCNCCCCNCCCNC(=O)[C@@H](N)CCCCN)cc1` [Compound 40, N-(p-azidobenzamide)-L-tyrosyl-spermine-L-lysine-triamide], in experiment [1] (setting [6]), the IC50 was 3.3 µM. Besides, the “Relative Potency” value in experiment [1] (Table 5, relative to PhTX-343) is recorded as 7.
Take `NCCCNCCCCNCCCNC(=O)[C@H](Cc1ccc(O)cc1)NC(=O)c1ccccc1` [Compound 23]: the “potency compared with PhTX-343 or other analogues (in words)” value in experiment [1] is “equipotent with the C10 analogue 20”.
As for `CCCC(=O)N[C@@H](Cc1ccc(OCc2ccccc2)cc1)C(=O)NCCCNCCCCNCCCN` [drawing 34], in experiment [1] (setting [2]), the IC50 was determined as 24 µM. Also, in experiment [1] (setting [3]), the “Relative Potency” value is 1.0.
Consider `CCCC(=O)N[C@@H](Cc1cc(I)c(O)c(I)c1)C(=O)NCCCNCCCCNCCCN` [Compound 13], for which the “increase in potency compared with PhTX-343” value in experiment [1] was found to be 4.5 fold. In the experiment on locust muscle QUIS-R, the “voltage dependence of antagonism” value was “voltage-dependent”.
In the case of `NCCCNCCCCNCCCNC(=O)[C@H](Cc1ccc(O)cc1)NC(=O)Cc1ccccc1` [drawing 48], in experiment [1] (setting [4]), the IC50 turned out to be 12 µM. The “Relative Potency” value in experiment [1] (setting [5]) is given as 0.5.
In the case of `CCCC(=O)N[C@@H](Cc1cc(I)c(O)c(I)c1)C(=O)NCCCNCCCCNCCCNC(=O)[C@@H](N)CCCCN` [drawing 65], in experiment [1] (setting [6]), the IC50 stood at 1.7 µM. In addition, in experiment [1] (Table 5, relative to PhTX-343), the “Relative Potency” value is 14.
With `CCCC(=O)N[C@@H](Cc1ccc(O)cc1)C(=O)NCCCCNCCCN` [Compound 4, PhTX-43], in experiment [1], the “potency compared with PhTX-343 or other analogues (in words)” value is “reduced potency”.
Regarding `CCCC(=O)N[C@@H](Cc1ccc(O)cc1)C(=O)NCCCNCCCCNCCCN` [Compound 1, PhTX-343], in experiment [1], the “potency compared with natural PhTX-433 (in words)” value is given as “somewhat less active”. The “physiological activity relative to that of PhTX-433, by locust muscle twitch inhibition concentration” value in experiment [1] (PhTX-433 = 100%) is recorded as 80%. The IC50 in experiment [1] (cumulative dose-inhibition on eight nerve-muscle preparations, read-out: concentration which reduced the twitch contraction by 50% (IC50)) came out at 23 µM. In addition, the “effect on the neurally-evoked twitch contraction (in words)” value in experiment [1] (toxin 1-10 μM) is “influenced the twitch contraction in the same qualitative fashion as PhTX-433”. The “voltage dependence of antagonism” value in the experiment on locust muscle QUIS-R is “voltage-dependent”.
As for `CC(=O)N[C@@H](Cc1ccc(O)cc1)C(=O)NCCCNCCCCNCCCN` [drawing 42], the IC50 in experiment [1] (setting [4]) turned out to be 50 µM. In addition, the “Relative Potency” value in experiment [1] (setting [5]) came out at 0.7.
With `CC(=O)N[C@@H](Cc1ccc(O)cc1)C(=O)NCCCNCCCCNCCCN` [Compound 18], the “potency compared with PhTX-343 or other analogues (in words)” value in experiment [1] is “slight but significant reduction in potency”.
As for `CCCC(=O)N[C@@H](Cc1ccc(O)cc1)C(=O)NCCCNCCCCNCCCNC(C)=O` [drawing 58], in experiment [1] (setting [7]), the IC50 was found to be 300 µM. Besides, the “Relative Potency” value in experiment [1] (setting [8]) is given as 0.08.
For the compound `CCCCCCCCCC(=O)NCCCNCCCCNCCCN` [drawing 78], the IC50 in experiment [1] (Table 7, mono-acyl spermine analogues, read-out: IC50) was 10 µM. The “Relative Potency” value in experiment [1] (Table 7, mono-acyl spermine analogues, relative to PhTX-343) turned out to be 2.3.
